We go through two substances from patent publication US5843886A, “Method of treating or preventing Type 1 diabetes by oral administration of insulin” (Autoimmune, Inc., priority 1995, dated 1998).

Several values for one entry are separate records, joined by “and”; a condition that tells them apart may be missing. Identical values can stand only once. Entries after “also recorded” stand apart in the source; their conditions may differ.

Common to all, as to format: in vivo, mouse
The test system of assay [1] is NOD mice. Put plainly: Spontaneous diabetes in NOD mice after oral feeding. The source says:
NOD (non-obese diabetic mice) were obtained from Taconic Laboratories (Germantown, Mass.) at 4 weeks of age. There were a total of 30 animals in each of the groups mentioned below at the beginning of the experiment. At 41/2 weeks of age, animals were orally administered Porcine insulin (Novo Laboratories, Danbury, Conn.). Each animal received two treatments orally twice a week until 9 weeks of age. The mice were fed either saline (control) or 10 micrograms, 100 micrograms, or 1 milligram of Porcine insulin. The animals were fed (gavaged) with an 18 gauge ball-point needle (Popper and Sons, Inc., New Hyde Park, N.Y.). Beginning at 10 weeks the animals were then fed once a week for a total of 33 weeks. Beginning at 12 weeks the urine was tested weekly for the presence of glucose using Glucosuria test tape (Eli Lilly, Indianapolis, Ind.). If an animal tested 3+ or higher on the glucose urine test, a serum sample was taken and blood glucose measured using a glucose analyzer (Beckman). If the blood glucose was 220 or higher, the animals were classified as diabetic and then sacrificed. An identical experiment to Example 1 was performed in which NOD mice (14-17 per group) were fed one homogenized pancreas derived from Lewis rats in 0.5 mls PBS. […] Nonetheless, the effect is not as dramatic and complete as that seen in the animals fed insulin.

For assay [2], the system named is NOD mice. Put plainly: Glucose post oral insulin in fasting 7 week NOD mice. To be noted: for blood glucose after feeding: measured over 24 hours. Here is the method: In order to determine whether any endocrinologic (i.e. direct lowering of blood sugar) effects occurred following the feeding of insulin, 7 week old NOD mice (5 mice per group) were fed 1 mg of porcine insulin or 1 mg of myelin basic protein (obtained from Pel Freez, Rogers, AR) as a control protein. Blood glucose was then measured over the next 24 hour period. As a positive control, a separate group of animals were injected subcutaneously with 20 micrograms of Porcine insulin. All animals were kept in the fasting state.

Assay [3] deals with NOD mice. Put plainly: Insulitis in insulin-fed NOD mice (preliminary experiments, data not shown). The note with it: fed 1 mg, compared with PBS-fed NOD mice. The source says:
Therefore, oral administration of insulin to NOD mice appeared to be affecting the infiltration of immune system cells into the pancreas and thus halting disease progression by preserving beta cell function.

Assay [4] relates to NOD mice. Put plainly: Aerosol administration of insulin on diabetes in NOD mice (Example 4). The note with it: 0 to 1 mg in aerosol form by nebulizer. As for the experimental part:
Insulin (0 to 1 mg as in Examples 1 and 2) will be administered to NOD mice as described above in Examples 1 and 2 except in aerosol form by nebulizer.

For assay [5], the system named is NOD mice. The experiment in a line: Treatment of initial stages of diabetes in hyperglycemic NOD mice (Example 5). To be noted: 0 to 1 mg, oral and aerosol, start at weeks 12-20 of age. As for the experimental part:
Insulin (0 to 1 mg as in Examples 1 and 2) will be administered to NOD mice which are suffering from hyperglycemia in an oral and aerosol form. The treatments will begin by weeks 12-20 of age, by which the serum glucose levels are at hyperglycemic concentrations in a certain percentage of animals prior to onset of diabetes.

[6] abbreviates: 20 micrograms injected subcutaneously, fasting 7 week old mice.
The mark [7] stands for this setting: fed 1 mg orally, fasting 7 week old mice.

Porcine insulin: the incidence of diabetes entry in the assay on NOD mice [1] (all oral doses tested (10 micrograms, 100 micrograms, 1 mg)) is on record as “lower incidence of diabetes; also recorded: reduced the numbers of these mice which subsequently went on to develop diabetes”. Besides, the development of diabetes entry in the assay on NOD mice [1] (fed 1 mg orally (gavage), twice a week until 9 weeks of age, then once a week, diabetic = blood glucose 220 or higher) was “none of the mice went on to develop diabetes; also recorded: no diabetes developed; also recorded: None of the animals developed diabetes”. Moreover, the “blood sugar on 10 representative animals” value with NOD mice [1] (fed 1 mg, individual non-diabetic animals) was determined as 130 mg/dL. In the assay with NOD mice [1] (fed 10 micrograms orally, same schedule), the development of diabetes entry is “diabetes developed”. In addition, the “blood sugar in animals which developed diabetes” value in the assay with NOD mice [1] (fed 10 micrograms, individual animals) was 330 mg/dL and 420 mg/dL and 520 mg/dL. Also, in the assay on NOD mice [1] (fed 100 micrograms orally, same schedule), the development of diabetes result is recorded as “diabetes developed”. Further, the “blood sugar in animals that became diabetic” value with NOD mice [1] (fed 100 micrograms, individual animals) was 500 mg/dL and 290 mg/dL and 600 mg/dL and 450 mg/dL. Moreover, in the assay with NOD mice [1] (highest oral dose (1 mg)), the “treated animals that failed to develop diabetes” value is on record as 100%. Moreover, in the assay with NOD mice [2] (setting [6]), the “decrease in blood glucose level” value is “approximately 80 mg %” and the “period over which the glucose decrease persisted” value came out at 4 h. The “endocrinologic (metabolic) effects” value in the assay on NOD mice [2] (fed 1 mg orally) is listed as “no endocrinologic (metabolic) effects”. Also, the “blood glucose after feeding” value in the assay with NOD mice [2] (setting [7]) is listed as “no drop in the blood glucose”. In addition, in the assay on NOD mice [3], the “inflammatory immune system cells surrounding the pancreas (insulitis)” value was “fewer inflammatory immune system cells surrounding the pancreas”. In addition, the “prevention of the manifestation of symptoms (hyperglycemia) of Type 1 diabetes” value in the assay on NOD mice [4] is “effective in preventing the manifestation of symptoms”. For the same substance, in the assay on NOD mice [5], the beta cell function result is recorded as “preservation of beta cell function” and the serum glucose concentrations entry is “reduction in serum glucose concentrations to near normal levels”.
Consider myelin basic protein, for which the “blood glucose after feeding” value in the assay with NOD mice [2] (setting [7]) is “no drop in the blood glucose”.
